What was measured:
human Factor 11 mRNA [1] = assay: Antisense inhibition of human Factor 11 in HepG2 cells, lipofectin, 75 nM (Example 1); assay type: cell-based; conditions: 75 nM antisense oligonucleotide, ~24 h, relative to untreated control cells, gapmers targeted to SEQ ID NO: 1
Method in brief: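 HepG2 cells transfected via lipofectin with 75 nM antisense oligonucleotide (5-10-5 MOE gapmers, 20-mers, phosphorothioate, 5-methylcytidines), treated ~24 h. Factor 11 mRNA quantified by real-time PCR, normalised to RIBOGREEN total RNA; percent inhibition versus untreated cells.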

human Factor 11 mRNA [2] = assay: Dose-dependent antisense inhibition of human Factor 11 in HepG2 cells, lipofectin 9.375-150 nM (Example 2); assay type: cell-based; conditions: ~16 h
Description: Cells were plated at a density of 10,000 cells per well and transfected using lipofectin reagent with 9.375 nM, 18.75 nM, 37.5 nM, 75 nM, and 150 nM concentrations of antisense oligonucleotide, as specified in Table 3. After a treatment period of approximately 16 hours, RNA was isolated from the cells and Factor 11 mRNA levels were measured by quantitative real-time PCR. Human Factor 11 primer probe set RTS 2966 (forward sequence: […], incorporated herein as SEQ ID NO: 3; reverse sequence: […], incorporated herein as SEQ ID NO: 4; probe sequence: TTGTCTACTGAAGCACACCCAAACAGGGAX, incorporated herein as SEQ ID NO: 5) was used to measure mRNA levels. Factor 11 mRNA levels were adjusted according to total RNA content, as measured by RIBOGREEN. Results are presented as percent inhibition of Factor 11, relative to untreated control cells.

Factor 11 protein = Factor 11 protein in monkey plasma by sandwich ELISA (Example 45); assay type: in vivo, cynomolgus monkeys; conditions: for Inhibition of Factor 11 protein relative to the PBS control: plasma ELISA
Description: Groups, each consisting of two male and three female monkeys, were injected subcutaneously with ISIS 416838, ISIS 416850, ISIS 416858, ISIS 416864, or ISIS 417002 in escalating doses. Antisense oligonucleotide was administered to the monkeys at 5 mg/kg three times per a week for week 1; 5 mg/kg twice per week for weeks 2 and 3; 10 mg/kg three times per week for week 4; 10 mg/kg twice per week for weeks 5 and 6; 25 mg/kg three times per week for week 7; and 25 mg/kg twice per week for weeks 8, 9, 10, 11, and 12. One control group, consisting of two male and three female monkeys, was injected subcutaneously with PBS according to the same dosing regimen. An additional experimental group, consisting of two male and three female monkeys, was injected subcutaneously with ISIS 416850 in a chronic, lower dose regimen. Antisense oligonucleotide was administered to the monkeys at 5 mg/kg three times per week for week 1; 5 mg/kg twice per week for week 2 and 3; 10 mg/kg three times per week for week 4; and 10 mg/kg twice per week for weeks 5 to 12. Body weights were measured weekly. Blood samples were collected 14 days and 5 days before the start of treatment and subsequently once per week for Factor 11 protein activity analysis in plasma, fibrinogen measurement, PT and aPTT measurements, bleeding times, and measurement of various hematologic factors. On day 85, the monkeys were euthanized by exsanguination while under deep anesthesia, and organs harvested for further analysis.
Plasma samples from all monkey groups taken on different days were analyzed by a sandwich-style ELISA assay (Affinity Biologicals Inc.) using an affinity-purified polyclonal anti-Factor 11 antibody as the capture antibody and a peroxidase-conjugated polyclonal anti-Factor 11 antibody as the detecting antibody. Monkey plasma was diluted 1:50 for the assay. Peroxidase activity was expressed by incubation with the substrate o-phenylenediamine. The color produced was quantified using a microplate reader at 490 nm and was considered to be proportional to the concentration of Factor 11 in the samples.
The results are presented in Table 115, expressed as percentage reduction relative to that of the PBS control.

[3] = mouse, in vivo
[4] = mouse, in vivo, sc, 50 mg/kg
[5] = mouse, in vivo, sc, 50 mg/kg; remark: listed apart in the source
[6] = day 15, escalating dose regimen
[7] = day 22, escalating dose regimen
[8] = day 29, escalating dose regimen
[9] = day 36, escalating dose regimen
[10] = day 43, escalating dose regimen
[11] = day 50, escalating dose regimen
[12] = day 57, escalating dose regimen
[13] = day 64, escalating dose regimen
[14] = day 71, escalating dose regimen
[15] = day 78, escalating dose regimen
[16] = day 85, escalating dose regimen
[17] = day −5, escalating dose regimen
[18] = day −14, escalating dose regimen

Substance: 413482 (antisense GGACGGCATTGGTGCACAGT; 5-10-5 MOE gapmer, further chemistry not given here) [compound 413482]
- % inhibition (human Factor 11 mRNA [1]): 85%
- percent inhibition of Factor 11 at 9.375 nM (human Factor 11 mRNA [2]; 9.375 nM): 26%
- percent inhibition of Factor 11 at 18.75 nM (human Factor 11 mRNA [2]; 18.75 nM): 39%
- percent inhibition of Factor 11 at 37.5 nM (human Factor 11 mRNA [2]; 37.5 nM): 59%
- percent inhibition of Factor 11 at 75 nM (human Factor 11 mRNA [2]; 75 nM): 74%
- percent inhibition of Factor 11 at 150 nM (human Factor 11 mRNA [2]; 150 nM): 82%
- IC50 (human Factor 11 mRNA [2]): 28 nM

Substance: ISIS 416838: MOE gapmer, nucleobases 1018 to 1042 of SEQ ID NO: 1 (Table 6) (antisense GCAACCGGGATGATGAGTGC; MOE gapmer, wing and gap sizes not given here)
- Inhibition of Factor 11 protein relative to the PBS control (Factor 11 protein; day 8, escalating dose regimen): 3%
- Inhibition of Factor 11 protein relative to the PBS control (Factor 11 protein; [6]): 4%
- Inhibition of Factor 11 protein relative to the PBS control (Factor 11 protein; [7]): 5%
- Inhibition of Factor 11 protein relative to the PBS control (Factor 11 protein; [8]): 8%
- Inhibition of Factor 11 protein relative to the PBS control (Factor 11 protein; [9]): 11%
- Inhibition of Factor 11 protein relative to the PBS control (Factor 11 protein; [10]): 5%
- Inhibition of Factor 11 protein relative to the PBS control (Factor 11 protein; [11]): 8%
- Inhibition of Factor 11 protein relative to the PBS control (Factor 11 protein; [12]): 10%
- Inhibition of Factor 11 protein relative to the PBS control (Factor 11 protein; [13]): 11%
- Inhibition of Factor 11 protein relative to the PBS control (Factor 11 protein; [14]): 12%
- Inhibition of Factor 11 protein relative to the PBS control (Factor 11 protein; [15]): 10%
- Inhibition of Factor 11 protein relative to the PBS control (Factor 11 protein; [16]): 10%
- Inhibition of Factor 11 protein relative to the PBS control (Factor 11 protein; [17]): 0%
- Inhibition of Factor 11 protein relative to the PBS control (Factor 11 protein; [18]): 0%
- RBC count [3]: 8 cells/pL

Substance: ISIS 416850: MOE gapmer, nucleobases 1275 to 1318 of SEQ ID NO: 1 (Table 8) (antisense TGCACAGTTTCTGGCAGGCC; MOE gapmer, wing and gap sizes not given here)
- Factor 11 protein levels in plasma (Factor 11 protein; cynomolgus monkeys, escalating dose regimen, ELISA): time-dependent decrease in protein levels
- Inhibition of Factor 11 protein relative to the PBS control (Factor 11 protein; day 8, chronic, lower dose regimen (*)): 6%
- Inhibition of Factor 11 protein relative to the PBS control (Factor 11 protein; day 8, escalating dose regimen): 8%
- Inhibition of Factor 11 protein relative to the PBS control (Factor 11 protein; day 15, chronic, lower dose regimen (*)): 13%
- Inhibition of Factor 11 protein relative to the PBS control (Factor 11 protein; [6]): 4%
- Inhibition of Factor 11 protein relative to the PBS control (Factor 11 protein; day 22, chronic, lower dose regimen (*)): 12%
- Inhibition of Factor 11 protein relative to the PBS control (Factor 11 protein; [7]): 11%
- Inhibition of Factor 11 protein relative to the PBS control (Factor 11 protein; day 29, chronic, lower dose regimen (*)): 20%
- Inhibition of Factor 11 protein relative to the PBS control (Factor 11 protein; [8]): 15%
- Inhibition of Factor 11 protein relative to the PBS control (Factor 11 protein; day 36, chronic, lower dose regimen (*)): 22%
- Inhibition of Factor 11 protein relative to the PBS control (Factor 11 protein; [9]): 17%
- Inhibition of Factor 11 protein relative to the PBS control (Factor 11 protein; day 43, chronic, lower dose regimen (*)): 24%
- Inhibition of Factor 11 protein relative to the PBS control (Factor 11 protein; [10]): 23%
- Inhibition of Factor 11 protein relative to the PBS control (Factor 11 protein; day 50, chronic, lower dose regimen (*)): 30%
- Inhibition of Factor 11 protein relative to the PBS control (Factor 11 protein; [11]): 42%
- Inhibition of Factor 11 protein relative to the PBS control (Factor 11 protein; day 57, chronic, lower dose regimen (*)): 34%
- Inhibition of Factor 11 protein relative to the PBS control (Factor 11 protein; [12]): 49%
- Inhibition of Factor 11 protein relative to the PBS control (Factor 11 protein; day 64, chronic, lower dose regimen (*)): 37%
- Inhibition of Factor 11 protein relative to the PBS control (Factor 11 protein; [13]): 55%
- Inhibition of Factor 11 protein relative to the PBS control (Factor 11 protein; day 71, chronic, lower dose regimen (*)): 41%
- Inhibition of Factor 11 protein relative to the PBS control (Factor 11 protein; [14]): 57%
- Inhibition of Factor 11 protein relative to the PBS control (Factor 11 protein; day 78, chronic, lower dose regimen (*)): 42%
- Inhibition of Factor 11 protein relative to the PBS control (Factor 11 protein; [15]): 63%
- Inhibition of Factor 11 protein relative to the PBS control (Factor 11 protein; day 85, chronic, lower dose regimen (*)): 34%
- Inhibition of Factor 11 protein relative to the PBS control (Factor 11 protein; [16]): 64%
- Inhibition of Factor 11 protein relative to the PBS control (Factor 11 protein; day −5, chronic, lower dose regimen (*)): 1%
- Inhibition of Factor 11 protein relative to the PBS control (Factor 11 protein; [17]): 0%
- Inhibition of Factor 11 protein relative to the PBS control (Factor 11 protein; day −14, chronic, lower dose regimen (*)): 0%
- Inhibition of Factor 11 protein relative to the PBS control (Factor 11 protein; [18]): 0%
- ALT [4]: 75 IU/L
- AST [4]: 99 IU/L
- Bilirubin [4]: 0.21 mg/dL
- Cholesterol [4]: 142 mg/dL
- HCT [5]: 49%
- Lymphocyte [5]: 4004 cells/μL
- Neutrophil [5]: 1144 cells/μL
- Platelets [5]: 916 10^3/μL
- RBC [5]: 10 10^6/μL
- WBC [5]: 5 10^3/μL
- hemoglobin [5]: 15 g/dL
- monocytes [5]: 156 cells/μL

Substance: ISIS 417002: MOE gapmer, nucleobases 1275 to 1318 of SEQ ID NO: 1 (Table 8) (antisense GGTGCACAGTTTCTGGCAGG; MOE gapmer, wing and gap sizes not given here)
- Inhibition of Factor 11 protein relative to the PBS control (Factor 11 protein; day 8, escalating dose regimen): 0%
- Inhibition of Factor 11 protein relative to the PBS control (Factor 11 protein; [6]): 4%
- Inhibition of Factor 11 protein relative to the PBS control (Factor 11 protein; [7]): 2%
- Inhibition of Factor 11 protein relative to the PBS control (Factor 11 protein; [8]): 8%
- Inhibition of Factor 11 protein relative to the PBS control (Factor 11 protein; [9]): 8%
- Inhibition of Factor 11 protein relative to the PBS control (Factor 11 protein; [10]): 9%
- Inhibition of Factor 11 protein relative to the PBS control (Factor 11 protein; [11]): 13%
- Inhibition of Factor 11 protein relative to the PBS control (Factor 11 protein; [12]): 24%
- Inhibition of Factor 11 protein relative to the PBS control (Factor 11 protein; [13]): 26%
- Inhibition of Factor 11 protein relative to the PBS control (Factor 11 protein; [14]): 30%
- Inhibition of Factor 11 protein relative to the PBS control (Factor 11 protein; [15]): 22%
- Inhibition of Factor 11 protein relative to the PBS control (Factor 11 protein; [16]): 23%
- Inhibition of Factor 11 protein relative to the PBS control (Factor 11 protein; [17]): 0%
- Inhibition of Factor 11 protein relative to the PBS control (Factor 11 protein; [18]): 0%

From patent US20230263822A1, “MODULATION OF FACTOR 11 EXPRESSION” (Ionis Pharmaceuticals, Inc., priority 2008, published 2023)
